Columns and labels:
[1] = Metabolic stability in nude mouse microsomes assessed as half life at 1 uM by HPLC-MS/MS analysis; type: ADME, Microsome
[2] = tested on: LNCaP; experiment: Cytotoxicity against human LNCAP cells after 3 days by MTS assay; type: functional, cell-based; settings: 72 h
[3] = target: Serine/threonine-protein kinase mTOR (Homo sapiens, UniProt P42345); experiment: Inhibition of flag-tagged truncated human mTOR (1360-2549) expressed in HEK293 cells by DELFIA assay; type: cell-based
[4] = target: Phosphatidylinositol 4,5-bisphosphate 3-kinase catalytic subunit alpha isoform (Homo sapiens, UniProt P42336); experiment: Inhibition of PI3Kalpha expressed in Escherichia coli by microtiter plate-based fluorescence polarization assay
Phosphatidylinositol 4,5-bisphosphate 3-kinase catalytic subunit alpha isoform, sequence (P42336 whole entry, canonical isoform): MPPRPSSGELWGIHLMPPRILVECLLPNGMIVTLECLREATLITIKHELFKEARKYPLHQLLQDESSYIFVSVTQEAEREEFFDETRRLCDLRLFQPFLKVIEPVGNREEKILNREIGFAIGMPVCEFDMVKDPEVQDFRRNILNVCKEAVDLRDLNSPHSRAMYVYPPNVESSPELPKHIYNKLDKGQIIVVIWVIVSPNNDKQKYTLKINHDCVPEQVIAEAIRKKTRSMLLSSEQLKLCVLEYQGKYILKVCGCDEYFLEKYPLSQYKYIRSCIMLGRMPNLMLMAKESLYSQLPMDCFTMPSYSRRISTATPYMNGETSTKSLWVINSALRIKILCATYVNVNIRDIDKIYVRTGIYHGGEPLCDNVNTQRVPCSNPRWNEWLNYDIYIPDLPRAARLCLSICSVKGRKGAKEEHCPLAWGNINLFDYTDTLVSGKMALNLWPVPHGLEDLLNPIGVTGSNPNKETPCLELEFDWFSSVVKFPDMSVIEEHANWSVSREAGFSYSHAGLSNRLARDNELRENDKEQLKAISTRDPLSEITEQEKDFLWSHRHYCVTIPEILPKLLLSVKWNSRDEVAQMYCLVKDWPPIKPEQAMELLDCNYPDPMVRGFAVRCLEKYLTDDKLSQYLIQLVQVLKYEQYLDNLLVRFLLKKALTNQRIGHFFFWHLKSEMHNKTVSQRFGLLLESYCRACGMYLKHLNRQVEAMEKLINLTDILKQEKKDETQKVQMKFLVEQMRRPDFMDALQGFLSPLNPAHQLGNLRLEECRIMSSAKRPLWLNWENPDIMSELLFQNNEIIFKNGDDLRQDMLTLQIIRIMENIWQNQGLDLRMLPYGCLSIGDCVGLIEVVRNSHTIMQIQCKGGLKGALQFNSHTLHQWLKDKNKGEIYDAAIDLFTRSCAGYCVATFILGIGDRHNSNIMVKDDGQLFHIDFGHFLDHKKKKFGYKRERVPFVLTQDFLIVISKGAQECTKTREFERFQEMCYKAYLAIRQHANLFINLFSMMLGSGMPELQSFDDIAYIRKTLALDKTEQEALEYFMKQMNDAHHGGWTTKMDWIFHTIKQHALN

Row | SMILES | half-life at 1 µM [1] | IC50 [3] | IC50 [4] | IC50 [2]
1 | O=C(Nc1ccncc1)Nc1ccc(-c2nc(N3CCOCC3)c3cnn(C4CCN(C(=O)c5cccnc5)CC4)c3n2)cc1 | 22 min | 0.83 nM | 548 nM | 150 nM
2 | CNC(=O)Nc1ccc(-c2nc(N3CCOCC3)c3cnn(C4CCNCC4)c3n2)cc1 | > 30 min | 1.4 nM | – | 1370 nM
3 | CC(=O)Nc1cccc(-c2nc(N3CCOCC3)c3cnn(C4CCN(Cc5ccccc5)CC4)c3n2)c1 | – | 2450 nM | – | –
4 | COC(=O)N1CCC(n2ncc3c(N4CCOCC4)nc(-c4ccc(NC(=O)OCCO)cc4)nc32)CC1 | > 30 min | 1 nM | – | 28 nM
5 | CCNC(=O)Nc1ccc(-c2nc(N3CCOCC3)c3cnn(C4CCN(C(=O)OC)CC4)c3n2)cc1 | > 30 min | 0.32 nM | – | 55 nM
6 | CNC(=O)Nc1ccc(-c2nc(N3CCOCC3)c3cnn(C4CCN(C)CC4)c3n2)cc1 | 2 min | 22 nM | – | 733 nM

The next lines start with results.

Row | half-life at 1 µM [1] | IC50 [3] | IC50 [4] | SMILES | IC50 [2]
7 | 3 min | – | – | CNC(=O)Nc1ccc(-c2nc(N3CCOCC3)c3cnn(C4CCN(Cc5ccccc5)CC4)c3n2)cc1 | –
8 | 12 min | 7 nM | – | CC(=O)Nc1ccc(-c2nc(N3CCOCC3)c3cnn(C4CCN(Cc5cccnc5)CC4)c3n2)cc1 | 66 nM
9 | 12 min | – | – | CNC(=O)Nc1ccc(-c2nc(N3CCOCC3)c3cnn(C4CCN(Cc5cccnc5)CC4)c3n2)cc1 | –
10 | 14 min | – | – | COC(=O)Nc1ccc(-c2nc(N3CCOCC3)c3cnn(C4CCN(Cc5cccnc5)CC4)c3n2)cc1 | –
11 | – | 46 nM | 631 nM | CCOC(=O)Nc1ccc(-c2nc(N3CCOCC3)c3cnn(C4CCN(Cc5ccccc5)CC4)c3n2)cc1 | 3400 nM

Reference: ChEMBL document CHEMBL1151963 (J Med Chem, 2009)
